This note sets out measurements from patent US11267800B2, “Cyclohexyl acid triazole azines as LPA antagonists” (BRISTOL-MYERS SQUIBB COMPANY, priority 2017, dated 2022).

This test concerns the target T1, human LPA1 (Homo sapiens, UniProt Q92633).
T1 construct: expressed in transfected cells; host or cells: Chinese hamster ovary (CHO) cells
In words: LPA1 functional antagonist assay (calcium flux). Particulars: CHO cells overexpressing human LPA1; inhibition of calcium flux induced by 10 nM LPA; read-out: hLPA1 IC50. In kind it is cell-based. A digest of the protocol: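 Dye-loaded CHO cells overexpressing human LPA1 (30 min, 37 °C) were preincubated 20 min at room temperature with compound (0.08 nM–5 μM; 0.5% DMSO; HBSS, 20 mM HEPES, 0.1% fatty-acid-free BSA), then stimulated with 10 nM LPA. IC50 is the concentration inhibiting 50% of LPA-induced calcium flux, from a 4-parameter logistic fit.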
(In general: Calcium flux is commonly read through the fluorescence of an indicator in the cells.)

pIC50: −log10 of the molar value.

T1 sequence (Q92633 whole entry): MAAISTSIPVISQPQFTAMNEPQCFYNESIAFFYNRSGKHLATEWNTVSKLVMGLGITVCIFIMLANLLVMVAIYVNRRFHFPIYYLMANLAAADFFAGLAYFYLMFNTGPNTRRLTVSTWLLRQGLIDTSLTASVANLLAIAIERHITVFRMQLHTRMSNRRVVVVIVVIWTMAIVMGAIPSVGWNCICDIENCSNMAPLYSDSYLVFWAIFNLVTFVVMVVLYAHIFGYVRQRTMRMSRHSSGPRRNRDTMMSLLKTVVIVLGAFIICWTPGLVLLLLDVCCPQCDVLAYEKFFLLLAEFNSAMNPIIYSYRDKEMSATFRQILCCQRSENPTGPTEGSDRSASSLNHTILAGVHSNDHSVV

For `Cc1nc(-c2nnn(C)c2COc2nccc(N3CCC3)n2)ccc1O[C@H]1CCC[C@H](C(=O)O)C1` [Example 349], the pIC50 is 5.92. Next, `Cc1nc(-c2nnn(C)c2COc2ccnc(N3CCC3)n2)ccc1O[C@H]1CCC[C@H](C(=O)O)C1` [Example 350]: 6.25; `COc1cc(OCc2c(-c3ccc(O[C@H]4CCC[C@H](C(=O)O)C4)cn3)nnn2C)ncn1` [Example 351]: 7.47. With `CCc1cc(OCc2c(-c3ccc(O[C@H]4CCC[C@H](C(=O)O)C4)cn3)nnn2C)ncn1` [Example 352] the figure was 7.42.

As for `Cn1nnc(-c2ccc(O[C@H]3CCC[C@H](C(=O)O)C3)cn2)c1COc1cc(C(F)F)ncn1` [Example 353], the pIC50 was 7.09. Next, `Cc1nc(-c2nnn(C)c2COc2cc(C(F)(F)F)nc(N3CCCC3)n2)ccc1O[C@H]1CCC[C@H](C(=O)O)C1` [Example 354]: 6.77. Turning to `Cc1nc(-c2nnn(C)c2COc2cc(-c3ccccn3)ncn2)ccc1O[C@H]1CCC[C@H](C(=O)O)C1` [Example 355], the pIC50 is 6.84. In the case of `Cc1nc(-c2nnn(C)c2COc2cc(N3CCOCC3)ncn2)ccc1O[C@H]1CCC[C@H](C(=O)O)C1` [Example 356], the pIC50 is 6.35.

With `Cc1nc(-c2nnn(C)c2COc2cc(-n3cncn3)ncn2)ccc1O[C@H]1CCC[C@H](C(=O)O)C1` [Example 357], the pIC50 was 6.92. With `Cc1nc(-c2nnn(C)c2COc2cc(-n3cccc3)ncn2)ccc1O[C@H]1CCC[C@H](C(=O)O)C1` [Example 358] the figure was 7.41; with `Cc1nc(-c2nnn(C)c2COc2cc(-n3ccnc3)ncn2)ccc1O[C@H]1CCC[C@H](C(=O)O)C1` [Example 359], 6.33. Take `COCCCCOc1cc(OCc2c(-c3ccc(O[C@H]4CCC[C@H](C(=O)O)C4)c(C)n3)nnn2C)ncn1` [Example 360]: the pIC50 is 7.00. With `Cc1nc(-c2nnn(C)c2COc2cc(OCCOC(C)C)ncn2)ccc1O[C@H]1CCC[C@H](C(=O)O)C1` [Example 361] the figure was 6.28; with `CCOCCOc1cc(OCc2c(-c3ccc(O[C@H]4CCC[C@H](C(=O)O)C4)c(C)n3)nnn2C)ncn1` [Example 362], 7.02. With `CSc1cc(OCc2c(-c3ccc(O[C@H]4CCC[C@H](C(=O)O)C4)c(C)n3)nnn2C)ncn1` [Example 363] the figure was 7.66; with `CSc1cc(NCc2c(-c3ccc(O[C@H]4CCC[C@H](C(=O)O)C4)c(C)n3)nnn2C)ncn1` [Example 364], 7.01; with `Cc1nc(-c2nnn(C)c2CNc2cc(C(F)F)ncn2)ccc1O[C@H]1CCC[C@H](C(=O)O)C1` [Example 365], 6.93. For `Cc1nc(-c2nnn(C)c2CNc2nccc(C(F)F)n2)ccc1O[C@H]1CCC[C@H](C(=O)O)C1` [Example 366], the negative-log IC50 (pIC50) is 6.87. On to `CSc1ccnc(OCc2c(-c3ccc(O[C@H]4CCC[C@H](C(=O)O)C4)c(C)n3)nnn2C)n1` [Example 367], for which the pIC50 is 8.10.

As for `Cn1nnc(-c2ccc(O[C@H]3CCC[C@H](C(=O)O)C3)cn2)c1COc1cc(C(F)(F)F)ncn1` [Example 368], the pIC50 is 7.10. Take `Cc1nc(-c2nnn(C)c2COc2cc(-n3cccn3)ncn2)ccc1O[C@H]1CCC[C@H](C(=O)O)C1` [Example 369]: the pIC50 was 8.08. Next, `Cc1nc(-c2nnn(C)c2COc2nccc(C(C)(F)F)n2)ccc1O[C@H]1CCC[C@H](C(=O)O)C1` [Example 370]: 7.68; `Cc1nc(-c2nnn(C)c2CNc2cc(C3CC3)ccn2)ccc1O[C@H]1CCC[C@H](C(=O)O)C1` [Example 371, (1S,3S)-3-((6-(5-(((4-cyclopropylpyridin-2-yl)amino)methyl)-1-methyl-1H-1,2,3-triazol-4-yl)-2-methylpyridin-3-yl)oxy)cyclohexane-1-carboxylic acid]: 7.80. In the case of `Cc1nc(-c2nnn(C)c2CNc2cc(-c3ccccc3)c(Cl)nn2)ccc1O[C@H]1CCC[C@H](C(=O)O)C1` [Example 372, (1S,3S)-3-((6-(5-(((6-chloro-5-phenylpyridazin-3-yl)amino)methyl)-1-methyl-1H-1,2,3-triazol-4-yl)-2-methylpyridin-3-yl)oxy)cyclohexane-1-carboxylic acid], the pIC50 is 6.70.

`Cc1nc(-c2nnn(C)c2CNc2cc(C3CC3)ncn2)ccc1O[C@H]1CCC[C@H](C(=O)O)C1` [Example 373]: the pIC50 is 7.10. Take `Cc1nc(-c2nnn(C)c2CNc2ccnc(C3CC3)n2)ccc1O[C@H]1CCC[C@H](C(=O)O)C1` [Example 374]: the pIC50 was 7.05. With `Cc1nc(-c2nnn(C)c2Cc2cccc(-c3ccccc3)n2)ccc1O[C@H]1CCC[C@H](C(=O)O)C1` [Example 376] the figure was 6.96. Next, `Cc1nc(-c2nnn(C)c2Cc2cc(-c3ccccc3)ccn2)ccc1O[C@H]1CCC[C@H](C(=O)O)C1` [Example 377]: 8.14; `Cc1nc(-c2nnn(C)c2Cc2nccc(-c3ccccc3)n2)ccc1O[C@H]1CCC[C@H](C(=O)O)C1` [Example 378]: 7.60; `Cc1nc(-c2nnn(C)c2CN(C)c2ncnc(C3CC3)n2)ccc1O[C@H]1CCC[C@H](C(=O)O)C1` [Example 379, (1S,3S)-3-{[6-(5-{[(4-cyclopropyl-1,3,5-triazin-2-yl)(methyl)amino]methyl}-1-methyl-1H-1,2,3-triazol-4-yl)-2-methylpyridin-3-yl]oxy}cyclohexane-1-carboxylic acid]: 7.03. Next, `CCCc1cncc(NCc2c(-c3ccc(O[C@H]4CCC[C@H](C(=O)O)C4)c(C)n3)nnn2C)n1` [Example 380, (1S,3S)-3-((2-Methyl-6-(1-methyl-5-(((6-propylpyrazin-2-yl)amino)methyl)-1H-1,2,3-triazol-4-yl)pyridin-3-yl)oxy)cyclohexane-1-carboxylic acid]: 7.03; `CCCCc1ncnc(N(C)Cc2c(-c3ccc(O[C@H]4CCC[C@H](C(=O)O)C4)c(C)n3)nnn2C)n1` [Example 381]: 7.42; `CCCCc1cncc(NCc2c(-c3ccc(O[C@H]4CCC[C@H](C(=O)O)C4)c(C)n3)nnn2C)n1` [Example 382]: 7.92. For the molecule `Cc1nc(-c2nnn(C)c2CNc2nccc(OC3CC3)n2)c(F)cc1O[C@H]1CCC[C@H](C(=O)O)C1` [Example 383], the pIC50 was 6.64. Next, `CCOc1ccnc(NCc2c(-c3nc(C)c(O[C@H]4CCC[C@H](C(=O)O)C4)cc3F)nnn2C)n1` [Example 384]: 7.32.

As for `CCc1nc(-c2nnn(C)c2CNc2nccc(C(C)(C)C)n2)ccc1O[C@H]1CCC[C@H](C(=O)O)C1` [Example 385], the pIC50 was 7.39. As to `CCc1nc(-c2nnn(C)c2CNc2nccc(OC)n2)ccc1O[C@H]1CCC[C@H](C(=O)O)C1` [Example 386], the pIC50 is 6.34. In the case of `CCc1nc(-c2nnn(C)c2CNc2nccc(C3CCC3)n2)ccc1O[C@H]1CCC[C@H](C(=O)O)C1` [Example 387], the pIC50 was 7.62. Next, `CCc1nc(-c2nnn(C)c2CNc2nccc(C3CC3)n2)ccc1O[C@H]1CCC[C@H](C(=O)O)C1` [Example 388]: 7.35; `CCc1nc(-c2nnn(C)c2CNc2nccc(C(C)C)n2)ccc1O[C@H]1CCC[C@H](C(=O)O)C1` [Example 389]: 8.03.

Turning to `CCc1nc(-c2nnn(C)c2CNc2nccc(OC3CC3)n2)ccc1O[C@H]1CCC[C@H](C(=O)O)C1` [Example 390], the pIC50 was 7.77.

Turning to `CCc1nc(-c2nnn(C)c2CNc2ccnc(OC3CC3)n2)ccc1O[C@H]1CCC[C@H](C(=O)O)C1` [Example 391], the pIC50 was 6.68.

Consider `CCCOc1ccnc(NCc2c(-c3ccc(O[C@H]4CCC[C@H](C(=O)O)C4)c(CC)n3)nnn2C)n1` [Example 392], for which the pIC50 is 7.82. With `CCOc1ccnc(NCc2c(-c3ccc(O[C@H]4CCC[C@H](C(=O)O)C4)c(CC)n3)nnn2C)n1` [Example 393], the pIC50 was 7.82. With `Cc1nc(-c2nnn(C)c2Nc2nccc(OCCC(F)(F)F)n2)ccc1O[C@H]1CCC[C@H](C(=O)O)C1` [Example 394] the figure was 6.99. With `Cc1nc(-c2nnn(C)c2Nc2nccc(OCCCF)n2)ccc1O[C@H]1CCC[C@H](C(=O)O)C1` [Example 395] the figure was 7.29; with `Cc1nc(-c2nnn(C)c2Nc2nccc(OCC(F)(F)F)n2)ccc1O[C@H]1CCC[C@H](C(=O)O)C1` [Example 396], 7.38. Next, `Cc1nc(-c2nnn(C)c2CNc2cccc(Cc3ccccc3)n2)ccc1O[C@H]1CCC[C@H](C(=O)O)C1` [Example 397]: 5.99; `CCCc1cccc(NCc2c(-c3ccc(O[C@H]4CCC[C@H](C(=O)O)C4)c(C)n3)nnn2C)n1` [Example 398]: 7.57.

As to `Cc1nc(-c2nnn(C)c2CNc2cccc(C3CC3)n2)ccc1O[C@H]1CCC[C@H](C(=O)O)C1` [Example 399], the pIC50 was 6.27.

Turning to `Cc1nc(-c2nnn(C)c2CCNc2nccc(C(C)(C)C)n2)ccc1O[C@H]1CCC[C@H](C(=O)O)C1` [Example 400, (1S,3S)-3-((6-(5-(2-((4-(tert-butyl)pyrimidin-2-yl)amino)ethyl)-1-methyl-1H-1,2,3-triazol-4-yl)-2-methylpyridin-3-yl)oxy)cyclohexane-1-carboxylic acid], the pIC50 is 6.17.

Consider `Cc1nc(-c2nnn(C)c2CCNc2nccc(C(C)C)n2)ccc1O[C@H]1CCC[C@H](C(=O)O)C1` [Example 401], for which the pIC50 was 5.80. On to `CCOc1cc(C2CCC2)nc(NCc2c(-c3ccc(O[C@H]4CCC[C@H](C(=O)O)C4)c(C)n3)nnn2C)n1` [Example 402], for which the negative-log IC50 (pIC50) was 7.44. With `Cn1nnc(-c2ccc(O[C@H]3CCC[C@H](C(=O)O)C3)cn2)c1CNc1ccnc(OCC2(C)CC2)n1` [Example 403] the figure was 5.64; with `Cn1nnc(-c2ccc(O[C@H]3CCC[C@H](C(=O)O)C3)cn2)c1COc1nccc(C(F)(F)F)n1` [Example 404], 6.76.

Usually pIC50 stands for −log10 of the IC50, conventionally taken in molar units.
